Experimental data taken from the Kinase Knowledgebase extract (Sharma et al. 2016).

The compounds below were run against EGFR (UniProt P00533).
Sequence of EGFR (P00533 whole entry, looked up): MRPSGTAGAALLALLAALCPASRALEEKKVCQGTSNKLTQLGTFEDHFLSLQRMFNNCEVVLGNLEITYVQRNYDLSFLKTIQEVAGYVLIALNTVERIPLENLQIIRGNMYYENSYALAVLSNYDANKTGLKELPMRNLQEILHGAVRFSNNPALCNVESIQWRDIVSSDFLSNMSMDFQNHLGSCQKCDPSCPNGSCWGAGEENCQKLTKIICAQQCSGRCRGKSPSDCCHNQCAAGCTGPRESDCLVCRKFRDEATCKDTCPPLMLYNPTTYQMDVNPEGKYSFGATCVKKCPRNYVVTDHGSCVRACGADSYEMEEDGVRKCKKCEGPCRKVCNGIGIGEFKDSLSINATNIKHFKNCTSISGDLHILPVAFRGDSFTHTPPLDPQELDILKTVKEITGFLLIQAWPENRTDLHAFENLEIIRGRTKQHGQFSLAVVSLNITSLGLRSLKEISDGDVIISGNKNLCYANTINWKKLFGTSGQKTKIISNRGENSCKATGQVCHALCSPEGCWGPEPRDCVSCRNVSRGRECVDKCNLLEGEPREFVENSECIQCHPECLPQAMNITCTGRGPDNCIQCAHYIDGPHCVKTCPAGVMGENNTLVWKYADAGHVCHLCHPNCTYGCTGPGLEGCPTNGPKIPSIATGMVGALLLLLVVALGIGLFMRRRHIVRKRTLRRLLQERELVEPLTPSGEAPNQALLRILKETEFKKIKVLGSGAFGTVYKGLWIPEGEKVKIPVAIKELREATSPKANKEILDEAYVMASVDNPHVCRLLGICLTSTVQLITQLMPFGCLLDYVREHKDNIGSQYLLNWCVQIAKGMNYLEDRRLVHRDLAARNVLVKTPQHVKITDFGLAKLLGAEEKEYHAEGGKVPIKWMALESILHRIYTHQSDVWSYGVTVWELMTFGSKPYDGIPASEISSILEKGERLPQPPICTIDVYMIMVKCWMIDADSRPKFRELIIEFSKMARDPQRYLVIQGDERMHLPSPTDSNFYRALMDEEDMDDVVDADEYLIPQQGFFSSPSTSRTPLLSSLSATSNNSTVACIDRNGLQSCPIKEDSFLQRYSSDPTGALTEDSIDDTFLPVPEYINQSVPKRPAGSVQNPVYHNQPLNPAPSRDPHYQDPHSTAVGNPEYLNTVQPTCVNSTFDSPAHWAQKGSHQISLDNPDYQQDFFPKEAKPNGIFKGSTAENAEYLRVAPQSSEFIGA

Row | SMILES | IC50
1 | CS(=O)(=O)CCOCc1ccc(-c2ccc3ncnc(Nc4ccc(OCc5cccc(F)c5)c(Cl)c4)c3c2)o1 | < 100 nM
2 | Cn1ccnc1S(=O)(=O)CCNCc1ccc(-c2ccc3ncnc(Nc4ccc(OCc5cccc(F)c5)c(Cl)c4)c3c2)o1 | < 100 nM
3 | CS(=O)(=O)CCNCCCc1ccc(-c2ccc3ncnc(Nc4ccc(OCc5ccccc5)c(Cl)c4)c3c2)o1 | < 100 nM
4 | CS(=O)(=O)CCN(CC#N)Cc1ccc(-c2ccc3ncnc(Nc4ccc(OCc5cccc(F)c5)c(Cl)c4)c3c2)o1 | < 100 nM
5 | O=S(=O)(CCOCc1ccc(-c2ccc3ncnc(Nc4ccc(OCc5cccc(F)c5)c(Cl)c4)c3c2)o1)c1ccccc1 | < 100 nM
6 | CCCS(=O)(=O)CCNCc1ccc(-c2ccc3ncnc(Nc4ccc(OCc5cccc(F)c5)c(Cl)c4)c3c2)o1 | < 100 nM

The remaining lines, values ahead:

Row | IC50 | SMILES
7 | < 100 nM | O=S(=O)(CCNCc1ccc(-c2ccc3ncnc(Nc4ccc(OCc5cccc(F)c5)c(Cl)c4)c3c2)o1)c1ccccn1
8 | < 100 nM | CCCN(CCS(C)(=O)=O)Cc1ccc(-c2ccc3ncnc(Nc4ccc(OCc5cccc(F)c5)c(Cl)c4)c3c2)o1
9 | < 100 nM | O=S(=O)(CCNCc1ccc(-c2ccc3ncnc(Nc4ccc(OCc5cccc(F)c5)c(Cl)c4)c3c2)o1)c1ccccc1
10 | < 100 nM | C=CS(=O)(=O)CCOCc1ccc(-c2ccc3ncnc(Nc4ccc(OCc5cccc(F)c5)c(Cl)c4)c3c2)o1
11 | < 100 nM | CCCS(=O)(=O)CCNCc1ccc(-c2cc3c(Nc4ccc(OCc5cccc(F)c5)cc4)ncnc3cn2)o1
12 | < 100 nM | CCN(CCS(C)(=O)=O)Cc1ccc(-c2ccc3ncnc(Nc4ccc(OCc5cccc(F)c5)c(Cl)c4)c3c2)o1
